According to patent US8067424B2, “Selective inhibitors for cyclin-dependent kinases” (Emory University, priority 2007, dated 2011):
Read-outs that look alike come from different tables or passages of the source.

How the values were obtained:
Format in all cases: biochemical
[1] = target: MKK1 (Homo sapiens, UniProt Q02750); assay: Kinase screen: MKK1 assay
Procedure: (§1) Generally, the same procedure was used for all assays. Since the total assay volume was 25.5 microliters, 0.5 microliters of inhibitors at 51× assay concentration were added to the plates before any other addition.
(§2) The basic procedure was to add 0.5 microliters inhibitor/control in DMSO to plate. Fifteen microliters of enzyme/substrate/buffer mix were added and incubated for 5 min. Ten microliters MgATP at the relevant concentration were added and incubated for 30 min. The assay was stopped by adding 5 microliters of 3% orthophosphoric acid. The assay was transferred to a p81 filter plate and read in a scintillation counter of 30 sec/well. Note that this assay procedure was not followed for MKK1, which instead involved a two-step assay, and PKC alpha, which required the addition of lipid vesicles.
After incubating at room temperature for 30 min, 5 μl from the first reaction was pipetted into 20 μl of the second reaction mix containing (final concentration) 25 mM Tris pH 7.5, 0.1 mM EGTA, 0.1 mM Na3VO4, 0.66 mg/ml myelin basic protein (MBP), 10 mM magnesium acetate and 0.05 mM [33P-g-ATP] (500-1000 cpm/pmole) and incubated for 30 min at room temperature. Assays were stopped by addition of 5 μl of 0.5 M (3%) orthophosphoric acid and then harvested onto P81 Unifilter plates with a wash buffer of 50 mM orthophosphoric acid.

[2] = target: T1, PRAK (Homo sapiens, UniProt Q8IW41); assay: Kinase screen: PRAK assay
T1 sequence (Q8IW41 1-473): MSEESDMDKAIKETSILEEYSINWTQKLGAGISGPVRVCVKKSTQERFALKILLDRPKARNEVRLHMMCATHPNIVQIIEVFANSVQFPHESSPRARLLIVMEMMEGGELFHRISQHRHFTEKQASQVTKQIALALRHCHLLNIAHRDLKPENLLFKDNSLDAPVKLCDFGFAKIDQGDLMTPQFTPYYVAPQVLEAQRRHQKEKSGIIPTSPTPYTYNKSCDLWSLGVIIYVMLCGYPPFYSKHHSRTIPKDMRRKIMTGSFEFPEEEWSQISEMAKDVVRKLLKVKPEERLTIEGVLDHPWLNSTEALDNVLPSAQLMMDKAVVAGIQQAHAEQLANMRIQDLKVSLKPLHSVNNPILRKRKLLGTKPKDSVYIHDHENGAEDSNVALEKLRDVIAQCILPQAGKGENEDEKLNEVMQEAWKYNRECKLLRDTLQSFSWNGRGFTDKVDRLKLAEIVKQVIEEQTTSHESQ
Procedure: as §1, §2
(50-1000 cpm/pmole) and incubated for 30 min at room temperature. Assays were stopped by addition of 5 μl of 0.5 M (3%) orthophosphoric acid and then harvested onto P81 Unifilter plates with a wash buffer of 50 mM orthophosphoric acid.

[3] = target: T2, DYRK2 (Homo sapiens, UniProt Q92630); assay: Kinase screen: DYRK2 assay
T2 sequence (Q92630 1-601): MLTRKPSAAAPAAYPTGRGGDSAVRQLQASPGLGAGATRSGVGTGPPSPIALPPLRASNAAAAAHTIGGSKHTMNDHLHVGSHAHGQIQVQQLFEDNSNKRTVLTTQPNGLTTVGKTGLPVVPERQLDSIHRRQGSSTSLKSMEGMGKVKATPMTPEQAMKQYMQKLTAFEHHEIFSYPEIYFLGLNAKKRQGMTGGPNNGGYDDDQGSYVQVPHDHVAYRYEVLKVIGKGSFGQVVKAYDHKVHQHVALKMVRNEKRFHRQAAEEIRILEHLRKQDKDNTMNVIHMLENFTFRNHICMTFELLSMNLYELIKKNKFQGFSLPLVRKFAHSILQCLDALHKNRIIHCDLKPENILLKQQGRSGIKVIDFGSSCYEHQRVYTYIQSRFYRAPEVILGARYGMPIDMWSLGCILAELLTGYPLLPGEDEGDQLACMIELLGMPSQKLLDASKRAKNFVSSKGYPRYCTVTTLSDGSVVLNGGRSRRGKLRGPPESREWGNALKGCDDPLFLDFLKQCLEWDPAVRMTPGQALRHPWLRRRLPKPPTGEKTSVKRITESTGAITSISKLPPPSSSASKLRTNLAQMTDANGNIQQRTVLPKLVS
Procedure: as §1, §2
DYRK2 assay: DYRK2 (5-20 mU of diluted in 50 mM Tris pH7.5, 0.1 mM EGTA) was assayed against Woodtide ([…]) (SEQ ID NO: 29) in a final volume of 25.5 μ1 containing 50 mM Tris pH 7.5, 0.1 mM EGTA, 350 μM substrate peptide, 10 mM Magnesium acetate and 0.05 mM [33P-g-ATP] (50-1000 cpm/pmole) and incubated for 30 min at room temperature. Assays were stopped by addition of 5 μl of 0.5 M (3%) orthophosphoric acid and then harvested onto P81 Unifilter plates with a wash buffer of 50 mM orthophosphoric acid.

[4] = target: PIM1 (Homo sapiens, UniProt P11309); assay: Kinase screen: PIM1 assay
PIM1, sequence (P11309 whole entry, species assumed): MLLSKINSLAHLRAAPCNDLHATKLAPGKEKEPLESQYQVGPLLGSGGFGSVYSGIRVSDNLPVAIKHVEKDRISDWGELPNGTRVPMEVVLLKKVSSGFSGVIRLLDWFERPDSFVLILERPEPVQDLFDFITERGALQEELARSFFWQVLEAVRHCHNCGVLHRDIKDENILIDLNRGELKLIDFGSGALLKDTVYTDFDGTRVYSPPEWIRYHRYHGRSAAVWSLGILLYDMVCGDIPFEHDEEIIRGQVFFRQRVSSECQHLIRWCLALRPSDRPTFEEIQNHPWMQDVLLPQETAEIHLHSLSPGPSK
Procedure: as §1, §2
PIM1 assay: PIM1 (5-20 mU diluted in 50 mM Tris pH 7.5, 0.1 mM EGTA, 0.1% b-mercaptoethanol, 1 mg/ml BSA) was assayed against a substrate peptide ([…]) (SEQ ID NO: 23) in a final volume of 25.5 μl containing 50 mM Tris pH 7.5, 0.05% b-mercaptoethanol, 300 μM substrate peptide, 10 mM magnesium acetate and 0.02 mM [33P-g-ATP] (50-1000 cpm/pmole) and incubated for 30 min at room temperature. Assays were stopped by addition of 5 μl of 0.5 M (3%) orthophosphoric acid and then harvested onto P81 Unifilter plates with a wash buffer of 50 mM orthophosphoric acid.

[5] = target: EPH-A2 (Homo sapiens, UniProt P29317); assay: Kinase screen: EPH-A2 assay; conditions: 10 micromolar compound; for remaining activity at 10 µM: read-out: mean activity remaining (as a percentage of the original activity), EPH A2
EPH-A2, sequence (P29317 24-976, species assumed): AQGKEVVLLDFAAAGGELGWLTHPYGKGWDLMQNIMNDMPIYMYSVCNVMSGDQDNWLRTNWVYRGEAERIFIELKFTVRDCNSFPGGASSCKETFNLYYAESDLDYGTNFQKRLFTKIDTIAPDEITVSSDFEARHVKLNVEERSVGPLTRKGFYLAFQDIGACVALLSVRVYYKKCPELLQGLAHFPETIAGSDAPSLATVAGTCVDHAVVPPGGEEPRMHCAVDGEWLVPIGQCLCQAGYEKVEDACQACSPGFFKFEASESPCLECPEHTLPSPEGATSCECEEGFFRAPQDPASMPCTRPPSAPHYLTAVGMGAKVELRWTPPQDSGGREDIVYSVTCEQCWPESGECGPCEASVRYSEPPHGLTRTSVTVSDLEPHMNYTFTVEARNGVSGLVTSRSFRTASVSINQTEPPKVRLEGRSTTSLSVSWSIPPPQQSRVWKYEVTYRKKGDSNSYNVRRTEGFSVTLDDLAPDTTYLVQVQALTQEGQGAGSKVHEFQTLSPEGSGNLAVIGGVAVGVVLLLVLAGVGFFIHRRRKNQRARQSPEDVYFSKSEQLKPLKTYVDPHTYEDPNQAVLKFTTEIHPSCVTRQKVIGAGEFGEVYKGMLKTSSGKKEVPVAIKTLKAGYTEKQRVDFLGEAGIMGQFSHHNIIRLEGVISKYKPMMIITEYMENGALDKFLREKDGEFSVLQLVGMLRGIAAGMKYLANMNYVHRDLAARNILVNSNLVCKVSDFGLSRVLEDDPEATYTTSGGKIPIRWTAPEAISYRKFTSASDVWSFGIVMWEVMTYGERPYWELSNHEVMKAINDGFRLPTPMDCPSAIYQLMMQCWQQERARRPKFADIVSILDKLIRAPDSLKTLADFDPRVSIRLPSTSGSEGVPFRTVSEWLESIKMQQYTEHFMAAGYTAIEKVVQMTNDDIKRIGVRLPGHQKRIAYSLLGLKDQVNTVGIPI
Procedure: as §1, §2
EPH-A2 assay: EPH-A2 (5-20 mU diluted in 50 mM Tris pH 7.5, 0.1 mM EGTA, 1 mg/ml BSA) was assayed against a substrate peptide (Poly Glut Tyr) in a final volume of 25.5 μl containing 50 mM Tris pH 7.5, 0.1 mg/ml substrate peptide, 10 mM magnesium acetate and 0.05 mM [33P-g-ATP] (50-1000 cpm/pmole) and incubated for 30 min at room temperature. Assays were stopped by addition of 5 μl of 0.5 M (3%) orthophosphoric acid and then harvested onto P81 Unifilter plates with a wash buffer of 50 mM orthophosphoric acid.

[6] = 10 micromolar compound, read-out: mean activity remaining (as a percentage of the original activity), MKK1
[7] = 10 micromolar compound, read-out: mean activity remaining (as a percentage of the original activity), PRAK
[8] = 10 micromolar compound, read-out: mean activity remaining (as a percentage of the original activity), DYRK 2
[9] = 10 micromolar compound, read-out: mean activity remaining (as a percentage of the original activity), PIM1

MKK1, sequence (Q02750 whole entry, species assumed): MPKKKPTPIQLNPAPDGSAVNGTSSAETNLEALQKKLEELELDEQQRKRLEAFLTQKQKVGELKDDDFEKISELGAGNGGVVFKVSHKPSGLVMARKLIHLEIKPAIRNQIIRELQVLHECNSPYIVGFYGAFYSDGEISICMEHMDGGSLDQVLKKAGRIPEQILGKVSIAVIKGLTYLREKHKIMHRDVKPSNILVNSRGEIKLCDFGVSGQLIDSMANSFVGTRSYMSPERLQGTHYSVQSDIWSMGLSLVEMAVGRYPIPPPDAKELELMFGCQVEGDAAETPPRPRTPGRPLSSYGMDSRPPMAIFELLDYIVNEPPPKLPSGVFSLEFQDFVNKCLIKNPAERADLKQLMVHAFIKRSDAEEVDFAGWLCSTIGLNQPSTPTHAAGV

| SMILES | remaining activity at 10 µM [1, 6] | remaining activity at 10 µM [2, 7] | remaining activity at 10 µM [3, 8] | remaining activity at 10 µM [4, 9] | remaining activity at 10 µM [5] | further results |
| --- | --- | --- | --- | --- | --- | --- |
| CC(C)c1cnn2c(NCc3ccccc3)cc(NCCCCCCCN)nc12 [BS-181] |  |  |  |  |  | remaining activity at 10 µM ([1]; MKK1, 10 μM, read-out: Mean Remaining Enzyme Activity (%)): 96%; remaining activity at 10 µM ([2]; PRAK, 10 μM, read-out: Mean Remaining Enzyme Activity (%)): 115%; remaining activity at 10 µM ([3]; DYRK2, 10 μM, read-out: Mean Remaining Enzyme Activity (%)): 94%; remaining activity at 10 µM ([4]; PIM1, 10 μM, read-out: Mean Remaining Enzyme Activity (%)): 88% |
| C=C[C@H](CO)Nc1cc(NCc2ccccc2)n2ncc(C(C)C)c2n1 [ICEC0065] | 107% | 86% | 90% | 113% | 109% |  |
| CC[C@H](CO)Nc1cc(NCc2ccccc2)n2ncc(C(C)C)c2n1 [ICEC0067] | 44% | 94% | 90% | 107% | 101% |  |
| CC(C)c1cnn2c(NCc3ccccc3)cc(N[C@@H](CO)[C@H](O)CO)nc12 [ICEC0318, (3S)-3-(7-(Benzylamino)-3-isopropylpyrazolo[1,5-a]pyrimidin-5-ylamino)butane-1,2,4-triol] | 65% | 97% | 75% | 103% | 116% |  |
| CC(C)c1cnn2c(NCc3ccccc3F)cc(NCCCCCN)nc12 [ICEC-0232] |  |  |  |  |  | mean activity remaining (as a percentage of the original activity), MKK1 ([1]; 10 micromolar compound): 83%; mean activity remaining (as a percentage of the original activity), PRAK ([2]; 10 micromolar compound): 97%; mean activity remaining (as a percentage of the original activity), DYRK 2 ([3]; 10 micromolar compound): 68%; mean activity remaining (as a percentage of the original activity), PIM1 ([4]; 10 micromolar compound): 110%; mean activity remaining (as a percentage of the original activity), EPH A2 [5]: 92% |
